Assay [1] deals with touch-sensitive tendrils of Bryonia diocia. As to conditions: quoted from Schuler et al. WO 02/55480; cited from earlier work.
Assay [2] has as its system Taxus chinensis cells. Briefly: Effect of 1-OII on accumulation of taxanes by Taxus cell suspension culture (14 days). Format: cell-based. The following applies: for Baccatin III / Paclitaxel / Total taxanes: 14 days in production medium with NAA, MDCA, GLN, silver thiosulfate. The protocol: (§1) This experiment was carried out according to the following parameters. Taxus chinensis cells were cultivated as callus and then as suspended cells on growth medium (Medium A, Table B) according to the methods described above. After seven days of cultivation in this medium, the suspended cells were substantially separated from this medium and placed at ca. 20% (w/v) fresh cells into a basal production medium (Medium B, Table B) with an initial pH of 5.8. In addition to the ingredients listed in Table B, the medium also contained 20 micromol/l NAA, 20 micromol/l MDCA, 5 mmol/l GLN, and 50 micromol/l silver as a thiosulfate complex. The gas phase was controlled to oxygen at 90-97% of the value in air and 2.5-6% CO2; the temperature was held at 25±2 degrees Celsius. The cells were cultivated in the dark and were agitated at 150-200 rpm for the duration of the experiment. After 14 days of cultivation in production medium, the culture was harvested for taxanes.

Assay [3] relates to Taxus chinensis cells. Nature of the assay: Effect of 6-BII on taxane production in suspension culture (14 days). It is filed as cell-based. As to conditions: for Baccatin III / Paclitaxel / Total taxanes: 14 days in production medium with NAA, MDCA, GLN, silver thiosulfate. The protocol:
as §1, with “approximately” for “ca.”, “comprised” for “also contained”, “levels” for “value”

In assay [4] the test system is Taxus chinensis cells. Briefly: Fed batch addition of 6-EII, taxane production in Taxus chinensis suspension culture (12 days). The following applies: cumulative 12-day fed batch dose 30 micromol/l. Format: cell-based. From the text:
The medium also contains an indanoyl amide as described in the present application, optionally in combination with one or more jasmonic acid-related substance, and these materials may be added at the beginning of the culture, after the exponential growth phase, or intermittantly throughout the culture period. The other ingredients of the medium may be added all at one time or at different times during the cultivation and may be fed continuously or intermittently. The ingredients may be added either before or after the inclusion of plant cells in the culture broth. Further, nutrients or other ingredients may be additionally added during cultivation, if deemed useful. Optionally, the medium may be changed after a suitable period of cultivation whereby the cells are freshly exposed to a medium containing similar ingredients as described above. Such changes could involve changes to the amounts of sugars such as glucose, fructose, sucrose, maltose, etc., nitrogen sources such as nitrate, ammonium, or amino acids or casamino acids, etc. After a period of cultivation, the culture is harvested and the levels of taxanes are quantified using HPLC and specific taxanes are identified using LC/MS/MS. Taxanes can be recovered from these cultures by appropriate extraction and purification procedures. For Experiments 2-8, Taxus cells were cultivated as callus cultures on solid medium and then further cultivated as suspensions of cell aggregates in liquid medium. Although taxanes can be produced by cultivation on solid medium, the use of liquid medium is preferred. The temperature of cultivation was controlled between 20 and 30 degrees Celsius. This experiment was carried out according to the following parameters. […] Taxus chinensis cells were cultivated as callus and then as suspended cells in growth medium (Medium A shown in Table B) containing 1% maltose and B5 salts according to the methods described above. After seven days of cultivation in this medium, the suspended cells were substantially separated from this medium and placed at about 20% (w/v) fresh cells into a production medium consisting of about 20% (v/v) spent growth medium and 80% (v/v) basal production medium (Medium B shown in Table B, but 1.25-fold concentrated) with an initial pH of 5.8 and containing 20 micromol/l MDCA and 50 micromol/l SLTS (Silver Thiosulfate). […] The gas phase was controlled to 25% oxygen and 4.5% CO2 (balance nitrogen) and the temperature was held at 25±2 degrees Celsius. The cells were cultivated in the dark and were agitated at 100-150 rpm for the duration of the experiment. After 12 days of cultivation in production medium, the culture was harvested for taxanes.

The subject of assay [5] is Eschscholzia californica Cell Cultures. As to conditions: compared with the octadecanoids or coronatine; quoted from Haider et al.; cited from earlier work.
Assay [6] relates to paclitaxel and taxanes biosynthesis. The following applies: teaching of EP 727492 (Yukimune et al.); cited from earlier work.
For assay [7], the system named is tendril coiling. The following applies: quoted from Haider et al.; cited from earlier work.
Where [8] appears, read: harvest after 12 days in production medium.

Regarding `CCc1cc2c(c(C(=O)N[C@H](C(=O)OC)[C@@H](C)CC)c1)CCC2=O` [6-ethyl-1-oxo-indanoyl isoleucine methyl ester], in assay [1], the “elicitation of the coiling reaction of tendrils” value was “potent elicitor”.

For the compound `CC[C@H](C)[C@H](NC(=O)c1cccc2c1CCC2=O)C(=O)OC` [1-OII, 1-oxo-indane-carboxy-(L)-isoleucine-methyl ester amide], the “induction of taxanes production” value in assay [2] (Taxus suspension culture) is given as “effective inducer of taxanes production”. In addition, the “Baccatin III” value in assay [2] (dose 5 micromol/l) was determined as 50 mg/L; in assay [2] (dose 20 micromol/l) it was 72 mg/L; in assay [2] (dose 50 micromol/l), 112 mg/L; in assay [2] (dose 100 micromol/l), 242 mg/L; in assay [2] (dose 200 micromol/l) it was 375 mg/L; in assay [2] (dose 500 micromol/l), 45 mg/L. Besides, the Paclitaxel came out at 192 mg/L in assay [2] (dose 5 micromol/l); 248 mg/L in assay [2] (dose 20 micromol/l); 349 mg/L in assay [2] (dose 50 micromol/l); 409 mg/L in assay [2] (dose 100 micromol/l); 407 mg/L in assay [2] (dose 200 micromol/l); 67 mg/L in assay [2] (dose 500 micromol/l). The Total taxanes in assay [2] (dose 5 micromol/l) was determined as 300 mg/L; in assay [2] (dose 20 micromol/l), 400 mg/L; in assay [2] (dose 50 micromol/l) it was 580 mg/L; in assay [2] (dose 100 micromol/l) it was 822 mg/L; in assay [2] (dose 200 micromol/l), 1055 mg/L; in assay [2] (dose 500 micromol/l) it was 368 mg/L.

In the case of 6-Bromoindanoyl isoleucine [6-BII], the “induction of taxanes production” value in assay [3] (T. chinensis cell cultures) was “effective inducer of taxanes production”. Moreover, the “Baccatin III” value in assay [3] (dose 5 micromol/l) was 92 mg/L; in assay [3] (dose 20 micromol/l), 114 mg/L; in assay [3] (dose 50 micromol/l), 174 mg/L; in assay [3] (dose 100 micromol/l), 313 mg/L; in assay [3] (dose 200 micromol/l), 307 mg/L; in assay [3] (dose 500 micromol/l) it was 1 mg/L. The Paclitaxel was 235 mg/L in assay [3] (dose 5 micromol/l); 230 mg/L in assay [3] (dose 20 micromol/l); 254 mg/L in assay [3] (dose 50 micromol/l); 360 mg/L in assay [3] (dose 100 micromol/l); 375 mg/L in assay [3] (dose 200 micromol/l); 0 mg/L in assay [3] (dose 500 micromol/l). The Total taxanes in assay [3] (dose 5 micromol/l) came to 423 mg/L; in assay [3] (dose 20 micromol/l), 441 mg/L; in assay [3] (dose 50 micromol/l) it was 580 mg/L; in assay [3] (dose 100 micromol/l) it was 962 mg/L; in assay [3] (dose 200 micromol/l) it was 1060 mg/L; in assay [3] (dose 500 micromol/l), 105 mg/L.

For `CC/C=C\CC1C(=O)CCC1CC(=O)OC` (stereo not drawn) [MJS, methyl jasmonate, reference compound], in assay [2] (dose 45 micromol/l), the “Baccatin III” value amounted to 226 mg/L, the Paclitaxel was found to be 432 mg/L and the Total taxanes was 854 mg/L. In assay [3] (dose 45 micromol/l), the “Baccatin III” value worked out at 154 mg/L, the Paclitaxel came to 574 mg/L and the Total taxanes amounted to 912 mg/L. Moreover, in assay [4] (setting [8]), the “Baccatin III” value came to 273 mg/L and the Paclitaxel worked out at 490 mg/L. The Total in assay [4] (total taxanes, harvest after 12 days) amounted to 1410 mg/L. Also, the “activation of benzo[c]phenanthridine alkaloid accumulation” value in assay [5] is recorded as “much more effective”.

With `CCC1CC1(NC(=O)C1=C[C@H](CC)C[C@@H]2C(=O)CC[C@H]12)C(=O)O` (stereo partly drawn) [Coronatine], the “induction of paclitaxel and taxanes biosynthesis” value in assay [6] is “shown to induce paclitaxel and taxanes biosynthesis”. For the same compound, the “induction of tendril coiling” value in assay [7] is given as “strong inducers of tendril coiling”.

These data come from patent US20050221456A1, “Use of indanoyl amide to stimulate secondary metabolism in Taxus sp” (Phyton Biotech, Inc., priority 2004, published 2005).
